In brackets after ≈: the same amount, converted by molar mass.
Tests used:
Candida albicans = test: Antifungal activity against Candida albicans ATCC 44859 after 24 hrs by broth microdilution method; format: functional; details: ATCC 44859, 24 h
Candida tropicalis = test: Antifungal activity against Candida tropicalis 156 after 24 hrs by broth microdilution method; format: functional; details: Candida tropicalis, 156, 24 h
Pichia kudriavzevii = test: Antifungal activity against Candida krusei E28 after 24 hrs by broth microdilution method; format: functional; details: E28, 24 h
Nakaseomyces glabratus = test: Antifungal activity against Candida glabrata 20/I after 24 hrs by broth microdilution method; format: functional
Trichosporon asahii = test: Antifungal activity against Trichosporon asahii 1188 after 24 hrs by broth microdilution method; format: functional; details: Trichosporon asahii, 1188, 24 h
Aspergillus fumigatus = test: Antifungal activity against Aspergillus fumigatus 231 after 24 hrs by broth microdilution method; format: functional; details: Aspergillus fumigatus, 231, 24 h
Lichtheimia corymbifera = test: Antifungal activity against Absidia corymbifera 272 after 24 hrs by broth microdilution method; format: functional; details: Lichtheimia corymbifera, 272, 24 h
[1] = system: Trichophyton mentagrophytes; test: Antifungal activity against Trichophyton mentagrophytes 445 after 72 hrs by broth microdilution method; format: functional; details: Trichophyton mentagrophytes, 445, 72 h
[2] = system: Mycobacterium tuberculosis; test: Antimycobacterial activity against Mycobacterium tuberculosis H37Rv CNCTC My 331/88 after 14 days by micromethod; format: functional; details: H37Rv CNCTC My 331/88, 336 h
[3] = system: Mycobacterium tuberculosis; test: Antimycobacterial activity against Mycobacterium tuberculosis H37Rv CNCTC My 331/88 after 21 days by micromethod; format: functional; details: H37Rv CNCTC My 331/88, 504 h
Mycobacterium avium [4] = test: Antimycobacterial activity against Mycobacterium avium CNCTC My 330/80 after 14 days by micromethod; format: functional; details: CNCTC My 330/80, 336 h
Mycobacterium avium [5] = test: Antimycobacterial activity against Mycobacterium avium CNCTC My 330/80 after 21 days by micromethod; format: functional; details: CNCTC My 330/80, 504 h
Mycobacterium kansasii [6] = test: Antimycobacterial activity against Mycobacterium kansasii CNCTC My 235/80 after 7 days by micromethod; format: functional; details: CNCTC My 235/80, 168 h
Mycobacterium kansasii [7] = test: Antimycobacterial activity against Mycobacterium kansasii CNCTC My 235/80 after 14 days by micromethod; format: functional; details: CNCTC My 235/80, 336 h
Mycobacterium kansasii [8] = test: Antimycobacterial activity against Mycobacterium kansasii CNCTC My 235/80 after 21 days by micromethod; format: functional; details: CNCTC My 235/80, 504 h
Mycobacterium kansasii [9] = test: Antimycobacterial activity against Mycobacterium kansasii isolate 6509/96 after 7 days by micromethod; format: functional; details: isolate 6509/96, 168 h
Mycobacterium kansasii [10] = test: Antimycobacterial activity against Mycobacterium kansasii isolate 6509/96 after 14 days by micromethod; format: functional; details: isolate 6509/96, 336 h
Mycobacterium kansasii [11] = test: Antimycobacterial activity against Mycobacterium kansasii isolate 6509/96 after 21 days by micromethod; format: functional; details: isolate 6509/96, 504 h
CHO-K1 = test: Cytotoxicity against CHOK1 cells after 24 hrs by MTT assay; format: cell-based; details: Cricetulus griseus, CHO-K1, 24 h
Escherichia coli = test: Antibacterial activity against Escherichia coli ATCC 8739 after 24 hrs by broth microdilution method; format: functional
Klebsiella pneumoniae [12] = test: Antibacterial activity against Klebsiella pneumoniae HK11750/08 after 24 hrs by broth microdilution method; format: functional
Klebsiella pneumoniae [13] = test: Antibacterial activity against extended spectrum beta-lactamase producing Klebsiella pneumoniae HK14368/08 after 24 hrs by broth microdilution method; format: functional
Pseudomonas aeruginosa = test: Antibacterial activity against Pseudomonas aeruginosa ATCC 9027 after 24 hrs by broth microdilution method; format: functional
Staphylococcus aureus [14] = test: Antibacterial activity against Staphylococcus aureus ATCC 6538 after 24 hrs by broth microdilution method; format: functional; details: ATCC 6538, 24 h
Staphylococcus aureus [15] = test: Antibacterial activity against methicillin-resistant Staphylococcus aureus HK5996/08 after 24 hrs by broth microdilution method; format: functional; details: HK5996/08, 24 h
[16] = system: Staphylococcus epidermidis; test: Antibacterial activity against Staphylococcus epidermidis HK6966/08 after 24 hrs by broth microdilution method; format: functional; details: HK6966/08, 24 h
Enterococcus sp. = test: Antibacterial activity against Enterococcus sp. HK14365/08 after 24 hrs by broth microdilution method; format: functional; details: HK14365/08, 24 h

## C[C@@H]1[C@H](O)[C@@H](C)/C=C/C=C/C=C/C=C/C=C/C=C/C=C/[C@H](O[C@@H]2O[C@H](C)[C@@H](O)[C@H](N)[C@@H]2O)C[C@@H]2O[C@](O)(C[C@@H](O)C[C@@H](O)[C@H](O)CC[C@@H](O)C[C@@H](O)CC(=O)O[C@H]1C)C[C@H](O)[C@H]2C(=O)O [AMPHOTERICIN B]
Candida albicans
  MIC: 0.54 µM (≈ 0.499 µg/mL)
Candida tropicalis
  MIC: 0.54 µM (≈ 0.499 µg/mL)
Pichia kudriavzevii
  MIC: 1 µM (≈ 0.924 µg/mL)
Nakaseomyces glabratus
  MIC: 0.54 µM (≈ 0.499 µg/mL)
Trichosporon asahii
  MIC: 0.27 µM (≈ 0.25 µg/mL)
Aspergillus fumigatus
  MIC: 0.54 µM (≈ 0.499 µg/mL)
Lichtheimia corymbifera
  MIC: 1 µM (≈ 0.924 µg/mL)
[1]
  MIC: 0.54 µM (≈ 0.499 µg/mL)

## O=[N+]([O-])c1cc(-c2nnn(Cc3ccc(Cl)c(Cl)c3)n2)cc([N+](=O)[O-])c1
[2]
  MIC99: 0.125 µM (≈ 0.0494 µg/mL)
[3]
  MIC99: 0.125 µM (≈ 0.0494 µg/mL)
Mycobacterium avium [4]
  MIC99: 4 µM (≈ 1.58 µg/mL)
Mycobacterium avium [5]
  MIC99: 8 µM (≈ 3.16 µg/mL)
Mycobacterium kansasii [6]
  MIC99: 0.25 µM (≈ 0.0988 µg/mL)
Mycobacterium kansasii [7]
  MIC99: 0.5 µM (≈ 0.198 µg/mL)
Mycobacterium kansasii [8]
  MIC99: 1 µM (≈ 0.395 µg/mL)
Mycobacterium kansasii [9]
  MIC99: 0.25 µM (≈ 0.0988 µg/mL)
Mycobacterium kansasii [10]
  MIC99: 0.5 µM (≈ 0.198 µg/mL)
Mycobacterium kansasii [11]
  MIC99: 0.5 µM (≈ 0.198 µg/mL)
CHO-K1
  IC50: 37 µM

## OC(Cn1cncn1)(Cn1cncn1)c1ccc(F)cc1F [FLUCONAZOLE]
Candida albicans
  MIC: 0.82 µM (≈ 0.251 µg/mL)
Candida tropicalis
  MIC: 1.6 µM (≈ 0.49 µg/mL)
Pichia kudriavzevii
  MIC: 105 µM (≈ 32.2 µg/mL)
Trichosporon asahii
  MIC: 210 µM (≈ 64.3 µg/mL)
Aspergillus fumigatus
  MIC: > 500 µM
Lichtheimia corymbifera
  MIC: > 500 µM
[1]
  MIC: 105 µM (≈ 32.2 µg/mL)

## GENTAMICIN
Escherichia coli
  MIC: 0.26 µM
Klebsiella pneumoniae [12]
  MIC: 0.26 µM
Klebsiella pneumoniae [13]
  MIC: 0.26 µM
Pseudomonas aeruginosa
  MIC: 1 µM

## O=[N+]([O-])c1cc(-c2nnn(Cc3cccc(F)c3)n2)cc([N+](=O)[O-])c1
[2]
  MIC99: 1 µM (≈ 0.344 µg/mL)
[3]
  MIC99: 1 µM (≈ 0.344 µg/mL)
Mycobacterium avium [4]
  MIC99: 8 µM (≈ 2.75 µg/mL)
Mycobacterium avium [5]
  MIC99: 16 µM (≈ 5.51 µg/mL)
Mycobacterium kansasii [6]
  MIC99: 1 µM (≈ 0.344 µg/mL)
Mycobacterium kansasii [7]
  MIC99: 2 µM (≈ 0.689 µg/mL)
Mycobacterium kansasii [8]
  MIC99: 2 µM (≈ 0.689 µg/mL)
Mycobacterium kansasii [9]
  MIC99: 0.5 µM (≈ 0.172 µg/mL)
Mycobacterium kansasii [10]
  MIC99: 1 µM (≈ 0.344 µg/mL)
Mycobacterium kansasii [11]
  MIC99: 2 µM (≈ 0.689 µg/mL)
CHO-K1
  IC50: 315 µM

## CN[C@H](CC(C)C)C(=O)N[C@H]1C(=O)N[C@@H](CC(N)=O)C(=O)N[C@H]2C(=O)N[C@H]3C(=O)N[C@H](C(=O)N[C@H](C(=O)O)c4cc(O)cc(O)c4-c4cc3ccc4O)[C@H](O)c3ccc(c(Cl)c3)Oc3cc2cc(c3O[C@@H]2O[C@H](CO)[C@@H](O)[C@H](O)[C@H]2O[C@H]2C[C@](C)(N)[C@H](O)[C@H](C)O2)Oc2ccc(cc2Cl)[C@H]1O [VANCOMYCIN]
Staphylococcus aureus [14]
  MIC: 0.35 µM (≈ 0.507 µg/mL)
Staphylococcus aureus [15]
  MIC: 0.35 µM (≈ 0.507 µg/mL)
[16]
  MIC: 0.35 µM (≈ 0.507 µg/mL)
Enterococcus sp.
  MIC: 0.7 µM (≈ 1.01 µg/mL)

## O=[N+]([O-])c1cc(Sc2nnnn2Cc2ccccc2)cc([N+](=O)[O-])c1
[2]
  MIC99: 1 µM (≈ 0.358 µg/mL)
[3]
  MIC99: 2 µM (≈ 0.717 µg/mL)
Mycobacterium avium [4]
  MIC99: 32 µM (≈ 11.5 µg/mL)
Mycobacterium avium [5]
  MIC99: 62.5 µM (≈ 22.4 µg/mL)
Mycobacterium kansasii [6]
  MIC99: 8 µM (≈ 2.87 µg/mL)
Mycobacterium kansasii [7]
  MIC99: 8 µM (≈ 2.87 µg/mL)
Mycobacterium kansasii [8]
  MIC99: 16 µM (≈ 5.73 µg/mL)
Mycobacterium kansasii [9]
  MIC99: 2 µM (≈ 0.717 µg/mL)
Mycobacterium kansasii [10]
  MIC99: 4 µM (≈ 1.43 µg/mL)
Mycobacterium kansasii [11]
  MIC99: 4 µM (≈ 1.43 µg/mL)
CHO-K1
  IC50: 127 µM

## O=[N+]([O-])c1cc(-c2nnn(CSc3nnnn3C3CCCCC3)n2)cc([N+](=O)[O-])c1
[2]
  MIC99: 0.03 µM (≈ 0.013 µg/mL)
[3]
  MIC99: 0.03 µM (≈ 0.013 µg/mL)
Mycobacterium avium [4]
  MIC99: 8 µM (≈ 3.46 µg/mL)
Mycobacterium avium [5]
  MIC99: 16 µM (≈ 6.92 µg/mL)
Mycobacterium kansasii [6]
  MIC99: 0.06 µM (≈ 0.0259 µg/mL)
Mycobacterium kansasii [7]
  MIC99: 0.06 µM (≈ 0.0259 µg/mL)
Mycobacterium kansasii [8]
  MIC99: 0.06 µM (≈ 0.0259 µg/mL)
Mycobacterium kansasii [9]
  MIC99: 0.03 µM (≈ 0.013 µg/mL)
Mycobacterium kansasii [10]
  MIC99: 0.03 µM (≈ 0.013 µg/mL)
Mycobacterium kansasii [11]
  MIC99: 0.03 µM (≈ 0.013 µg/mL)
CHO-K1
  IC50: 140 µM

## O=[N+]([O-])c1cc(Sc2nnnn2C2CCCCC2)cc([N+](=O)[O-])c1
[2]
  MIC99: 1 µM (≈ 0.35 µg/mL)
[3]
  MIC99: 1 µM (≈ 0.35 µg/mL)
Mycobacterium avium [4]
  MIC99: 32 µM (≈ 11.2 µg/mL)
Mycobacterium avium [5]
  MIC99: 32 µM (≈ 11.2 µg/mL)
Mycobacterium kansasii [6]
  MIC99: 1 µM (≈ 0.35 µg/mL)
Mycobacterium kansasii [7]
  MIC99: 1 µM (≈ 0.35 µg/mL)
Mycobacterium kansasii [8]
  MIC99: 1 µM (≈ 0.35 µg/mL)
Mycobacterium kansasii [9]
  MIC99: 1 µM (≈ 0.35 µg/mL)
Mycobacterium kansasii [10]
  MIC99: 1 µM (≈ 0.35 µg/mL)
Mycobacterium kansasii [11]
  MIC99: 1 µM (≈ 0.35 µg/mL)
CHO-K1
  IC50: 153 µM

## O=[N+]([O-])c1cc(-c2nnn(CSc3nnnn3-c3ccc(Br)cc3)n2)cc([N+](=O)[O-])c1
[2]
  MIC99: 0.03 µM (≈ 0.0152 µg/mL)
[3]
  MIC99: 0.03 µM (≈ 0.0152 µg/mL)
Mycobacterium kansasii [6]
  MIC99: 0.125 µM (≈ 0.0632 µg/mL)
Mycobacterium kansasii [7]
  MIC99: 0.25 µM (≈ 0.126 µg/mL)
Mycobacterium kansasii [8]
  MIC99: 0.5 µM (≈ 0.253 µg/mL)
Mycobacterium kansasii [9]
  MIC99: 0.06 µM (≈ 0.0303 µg/mL)
Mycobacterium kansasii [10]
  MIC99: 0.125 µM (≈ 0.0632 µg/mL)
Mycobacterium kansasii [11]
  MIC99: 0.25 µM (≈ 0.126 µg/mL)
CHO-K1
  IC50: 29 µM

## O=[N+]([O-])c1cc(-c2nnn(Cc3ccccc3)n2)cc([N+](=O)[O-])c1
[2]
  MIC99: 0.5 µM (≈ 0.163 µg/mL)
[3]
  MIC99: 1 µM (≈ 0.326 µg/mL)
Mycobacterium avium [4]
  MIC99: 8 µM (≈ 2.61 µg/mL)
Mycobacterium avium [5]
  MIC99: 8 µM (≈ 2.61 µg/mL)
Mycobacterium kansasii [6]
  MIC99: 1 µM (≈ 0.326 µg/mL)
Mycobacterium kansasii [7]
  MIC99: 2 µM (≈ 0.653 µg/mL)
Mycobacterium kansasii [8]
  MIC99: 2 µM (≈ 0.653 µg/mL)
Mycobacterium kansasii [9]
  MIC99: 1 µM (≈ 0.326 µg/mL)
Mycobacterium kansasii [10]
  MIC99: 2 µM (≈ 0.653 µg/mL)
Mycobacterium kansasii [11]
  MIC99: 2 µM (≈ 0.653 µg/mL)
CHO-K1
  IC50: 150 µM
